The source of these data is US9150510B2, “Amino acid derivative” (NIPPON ZOKI PHARMACEUTICAL CO., LTD., priority 2008, dated 2015).

What all share (format): in vivo
One data set has as its system ddY-type mice. Put plainly: Analgesic efficacy test (1): acetic acid writhing test (nociceptive pain model animal). The note with it: Mus musculus, 25 min, writhing number, male ddY mice, acetic acid i.p. 25 min after administration, mean ± standard error, read-out: Percent Suppression (%); for inhibition in vivo at 10 mg/kg: oral single dose 10 mg/kg; for inhibition in vivo at 100 mg/kg: oral single dose 100 mg/kg; for inhibition in vivo at 3 mg/kg: oral single dose 3 mg/kg. An excerpt: A compound of the present invention was orally administered to mice, to carry out an analgesic efficacy test according to acetic acid writhing test (nociceptive pain model animal). As an experimental animal, 4-week old male ddY-type mice were previously bred, and thereafter 8 mice per one group were used in the experiment. A solution or suspension prepared by dissolving or suspending a compound of the present invention in a 0.5% (w/v) aqueous CMC-Na solution was orally administered as a test substance in a single dose. While, to a control group, a 0.5% (w/v) aqueous CMC-Na solution was administered in the same manner. After 25 minutes from administration, the mice were intraperitoneally administered with a 0.7% (v/v) acetic acid/physiological saline at the dose of 10 mL/kg. From 5 minutes thereafter, writhing number in a 10-minute period was counted, and a suppressive rate for each individual (mean±standard error) was calculated by the following formula: […]
In the test for significance difference, Baltlett's test was carried out in the comparison between multiple groups of the group administered with test substance with the control group. In the case of homoscedasticity, Dunnett's multiple comparison test of parametrics, and in the case of heteroscedasticity, Dunnett's multiple comparison test of non-parametrics were used. In addition, in the test of dose dependency, Jockheere-Terpstra's test was used. In all cases, significance difference was considered to be found at P<0.05.

Data set [1] in a line: Test of blood kinetics in the rats. The note with it: rat, plasma, 2 mg/kg, fasted Wistar male rats, oral single dose of mixed solution of five compounds, each compound 2 mg/5 mL/kg, n=5, LC-MS; for AUC(0-inf): read-out: AUC0-∞ (area under the curve for concentration in blood, time 0 to infinite hours); for Cmax: read-out: Cmax (maximum concentration in plasma). On the procedure: Ten milligrams of a compound of the present invention was properly converted to a sodium salt with the same amount of sodium hydroxide, where necessary, and each was dissolved in 5 mL of water. Five compounds each among these aqueous solutions of the compounds of the present inventions were mixed, to prepare a mixed solution containing 0.4 mg/mL each of each compound. Six-week old Wistar SPF male rats that were fasted were orally administered with the mixed solution in a single dose using a gavage tube (each compound 2 mg/5 mL/kg, n=5). At time points of 0.25, 0.5, 1, 2, 4, and 8 hours after the administration, about 150 μL of blood was collected using a heparin-added capillary tube from veins of rat tails. The capillary tubes were centrifuged to collect the plasma. The plasma sample was deprotenized and the supernatant was diluted to prepare each of measurement sample solutions. The concentration of the compound of the present invention in each of measurement sample solutions was quantified using LC-MS, and Cmax (maximum concentration in plasma) and AUC (area under the curve for concentration in blood, time 0 to infinite (∞) hours) of the compounds of the present invention were calculated.

Another data set has as its system Chung model rat. Put plainly: Analgesic efficacy test (2): Chung model rat, neuropathic pain model (allodynia, von Frey filament). The note with it: Table 13, Wistar male rats, L5 spinal nerve ligation, mean ± standard error. The procedure: An analgesic efficacy test was conducted using a Chung model rat, a neuropathic pain model. Using Wistar male rats after passing 9-week old as an experimental animal, a model rat was prepared in accordance with the method of Kim and Chung (Pain, 50, 355-363, 1992). Specifically, left L5 spinal nerves of rats were exposed under anesthetization with pentobarbital (35 mg/kg, intraperitoneal administration), and firmly ligated with 5-0 silk yarn at L5 dorsal root ganglion peripheral side. The animals were placed in a transparent acrylic cage of which bottom was wire netted The measurement of allodynia was carried out using von Frey filament (manufactured by North Coast Medical Inc.) and a 50% reaction threshold was calculated according to an up-down method, in accordance with methods of Chaplan et al. (J. Neurosci. Method, 53, 55-63, 1994) and Lee et al. (J. Neurophysiol., 81, 2226-2233, 1999). The 50% reaction thresholds were measured twice before injury of the spinal nerve, and those animals of which thresholds were outside the standard were removed from the operation of spinal nerve injury. On or after 14 days from the spinal nerve injury, a 50% reaction threshold was measured, and those showing thresholds of 1 g or more and less than 4 g were used as experimental animal. The group was constituted by 7 rats per group so that an average of a 50% reaction threshold for each group would be nearly even.
A solution or suspension prepared by dissolving or suspending a compound of the present invention in a 0.5% (w/v) aqueous CMC-Na solution was orally administered as a test substance in a single dose while, a 0.5% (w/v) aqueous CMC-Na solution was administered in the same manner to the control group for nerve injury. After 30 minutes from the administration, the measurement of allodynia was carried out, and a 50% reaction threshold (mean±standard error) was calculated. In the test for significance difference, Baltlett's test was carried out in the comparison between multiple groups of the group administered with test substance with the control group for nerve injury. In the case of homoscedasticity, Dunnett's multiple comparison test of parametrics, and in the case of heteroscedasticity, Dunnett's multiple comparison test of non-parametrics were used. In all cases, significance difference was considered to be found at P<0.05.

Structures are written as SMILES. Counter-ions that a name gives are not always drawn.

`O=C(C=Cc1ccccc1F)N[C@H](Cc1c[nH]c2ccccc12)C(=O)O` [Compound 24, N^α-[3-(2-Fluorophenyl)acryloyl]-D-tryptophan]: in the data set on ddY-type mice, the inhibition in vivo at 10 mg/kg was 35.8 ± 9.3%. Moreover, in data set [1], the AUC(0-inf) came out at 148000 ng·h/mL and the Cmax was 15000 ng/mL.
Consider `N=C(N)NCCC[C@H](NC(=O)C=Cc1ccccc1F)C(=O)O` [Compound 64, N^α-[3-(2-Fluorophenyl)acryloyl]-L-arginine], for which the inhibition in vivo at 10 mg/kg in the data set on ddY-type mice came out at 50.6 ± 7.5%. In the data set on Chung model rat (oral single dose 1 mg/kg), the “50% Reaction Threshold (g), Group Administered with Test Substance, 30 Min. After Administration” value (shortened to “50% Reaction Threshold (g)”) is 6.21 ± 1.04 g.
In the case of `COc1ccc(C[C@H](NC(=O)C=Cc2ccc(C#N)cc2)C(=O)O)cc1` [Compound 56, N-[3-(4-Cyanophenyl)acryloyl]-O^4-methyl-L-tyrosine], in the data set on ddY-type mice, the inhibition in vivo at 100 mg/kg was 48.7 ± 10.1%. In addition, in data set [1], the AUC(0-inf) is 7000 ng·h/mL and the Cmax stood at 3500 ng/mL.
As for `O=C(C=Cc1cc(C(F)(F)F)cc(C(F)(F)F)c1)N[C@@H](Cc1c[nH]c2ccccc12)C(=O)O` [Compound 16, N^α-{3-[3,5-Bis(trifluoromethyl)phenyl]acryloyl}-L-tryptophan], the inhibition in vivo at 100 mg/kg in the data set with ddY-type mice was 69 ± 4.9%. The “50% Reaction Threshold (g)” value in the data set on Chung model rat (oral single dose 10 mg/kg) is given as 8.38 ± 1.07 g.
For the molecule `N#Cc1cccc(C=CC(=O)N[C@@H](Cc2c[nH]c3ccccc23)C(=O)O)c1` [Compound 17, N^α-[3-(3-Cyanophenyl)acryloyl]-L-tryptophan], in the data set with ddY-type mice, the inhibition in vivo at 10 mg/kg is 54.7 ± 6.8%. Further, the “50% Reaction Threshold (g)” value in the data set on Chung model rat (oral single dose 10 mg/kg) turned out to be 12.99 ± 1.53 g.
For `O=C(C=Cc1ccc(Oc2ccccc2)cc1)N[C@@H](Cc1c[nH]c2ccccc12)C(=O)O` [Compound 18, N^α-[3-(4-Phenoxyphenyl)acryloyl]-L-tryptophan] the same measures were 56.5 ± 4.2% and 11.73 ± 1.60 g.
In the case of `Cn1cc(C[C@H](NC(=O)C=Cc2cccc(C#N)c2)C(=O)O)c2ccccc21` [Compound 34, N^α-[3-(3-Cyanophenyl)acryloyl]-1-methyl-L-tryptophan], in the data set with ddY-type mice, the inhibition in vivo at 10 mg/kg is 45.2 ± 6.3%. In data set [1], the AUC(0-inf) came to 16500 ng·h/mL and the Cmax came out at 3200 ng/mL.
For `Cn1cc(C[C@H](NC(=O)C=Cc2ccc(F)cc2)C(=O)O)c2ccccc21` [Compound 28, N^α-[3-(4-Fluorophenyl)acryloyl]-1-methyl-L-tryptophan], in that order: 56.5 ± 5.3%, 183000 ng·h/mL and 37700 ng/mL.
As to `N#CC(=Cc1ccccc1)C(=O)N[C@@H](Cc1c[nH]c2ccccc12)C(=O)O` [Compound 25, N^α-(2-Cyano-3-phenylacryloyl)-L-tryptophan], in the data set with ddY-type mice, the inhibition in vivo at 10 mg/kg was 41.2 ± 11.1%. In data set [1], the AUC(0-inf) came to 6800 ng·h/mL and the Cmax was 1500 ng/mL.
For `COc1ccc(C[C@H](NC(=O)C=Cc2ccccc2F)C(=O)O)cc1` [Compound 40, N-[3-(2-Fluorophenyl)acryloyl]-O^4-methyl-L-tyrosine] the same measures were 42.3 ± 7%, 61700 ng·h/mL and 48700 ng/mL.
For `COc1ccc(C[C@H](NC(=O)C=Cc2ccc(F)cc2F)C(=O)O)cc1` [Compound 51, N-[3-(2,4-Difluorophenyl)acryloyl]-O^4-Methyl-L-Tyrosine], in that order: 42.2 ± 9.1%, 116000 ng·h/mL and 33000 ng/mL.
`COc1ccc(C[C@H](NC(=O)C=Cc2ccc(F)cc2)C(=O)O)cc1` [Compound 42, N-[3-(4-Fluorophenyl)acryloyl]-O^4-methyl-L-tyrosine]: the inhibition in vivo at 100 mg/kg with ddY-type mice is 52.7 ± 8.3%. Moreover, in data set [1], the AUC(0-inf) stood at 57700 ng·h/mL and the Cmax was 18800 ng/mL.
`COc1ccc(C[C@H](NC(=O)C=Cc2cc(F)ccc2F)C(=O)O)cc1` [Compound 52, N-[3-(2,5-Difluorophenyl)acryloyl]-O^4-methyl-L-tyrosine]: the inhibition in vivo at 3 mg/kg in the data set with ddY-type mice amounted to 50.9 ± 7.4%. In data set [1], the AUC(0-inf) turned out to be 38200 ng·h/mL and the Cmax was 18000 ng/mL.
Regarding `COc1ccc(C[C@H](NC(=O)C=Cc2ccccc2O)C(=O)O)cc1` [Compound 39, N-[3-(2-Hydroxyphenyl)acryloyl]-O^4-methyl-L-tyrosine], in the data set with Chung model rat (oral single dose 10 mg/kg), the “50% Reaction Threshold (g)” value is reported as 11.44 ± 1.70 g.
For the molecule `Cn1cc(C[C@H](NC(=O)C=Cc2ccccc2C#N)C(=O)O)c2ccccc21` [Compound 30, N^α-[3-(2-Cyanophenyl)acryloyl]-1-methyl-L-tryptophan], in the data set on ddY-type mice, the inhibition in vivo at 10 mg/kg came to 35.8 ± 9.9%. For the same molecule, in data set [1], the AUC(0-inf) is 13400 ng·h/mL and the Cmax was 3600 ng/mL.
Turning to `Cn1cc(C[C@H](NC(=O)C=Cc2ccccc2F)C(=O)O)c2ccccc21` [Compound 27, N^α-[3-(2-Fluorophenyl)acryloyl]-1-methyl-L-tryptophan], the inhibition in vivo at 3 mg/kg in the data set on ddY-type mice amounted to 45 ± 10%. Also, in data set [1], the AUC(0-inf) was 404000 ng·h/mL and the Cmax came to 53300 ng/mL.
For the molecule `Cn1cc(C[C@H](NC(=O)C=Cc2ccc(C#N)cc2)C(=O)O)c2ccccc21` [Compound 36, N^α-[3-(4-Cyanophenyl)acryloyl]-1-methyl-L-tryptophan], the inhibition in vivo at 10 mg/kg in the data set on ddY-type mice was 49.7 ± 11.3%. In data set [1], the AUC(0-inf) came to 11400 ng·h/mL and the Cmax was found to be 2300 ng/mL.
`NCCCC[C@H](NC(=O)C=Cc1ccccc1F)C(=O)O` [Compound 61, N^α-[3-(2-Fluorophenyl)acryloyl]-L-lysine hydrochloride]: in the data set on ddY-type mice, the inhibition in vivo at 100 mg/kg was determined as 40.5 ± 7.8%.
In the case of `NCCC[C@H](NC(=O)C=Cc1ccccc1F)C(=O)O` [Compound 63, N^α-[3-(2-Fluorophenyl)acryloyl]-L-ornithine hydrochloride], in the data set with ddY-type mice, the inhibition in vivo at 10 mg/kg worked out at 41.1 ± 7.8%.
Take `Cn1cc(C[C@H](NC(=O)C(C#N)=Cc2ccccc2F)C(=O)O)c2ccccc21` [Compound 37, N^α-[2-Cyano-3-(2-fluorophenyl)acryloyl]-1-methyl-L-tryptophan]: the inhibition in vivo at 10 mg/kg with ddY-type mice was 37.9 ± 7.5%. Besides, in data set [1], the AUC(0-inf) was 6800 ng·h/mL and the Cmax came out at 1500 ng/mL.
With `O=C(C=Cc1cccc(O)c1)N[C@@H](Cc1c[nH]c2ccccc12)C(=O)O` [Compound 6, N^α-[3-(3-Hydroxyphenyl)acryloyl]-L-tryptophan], the inhibition in vivo at 100 mg/kg with ddY-type mice came to 39.2 ± 15.4%.
Still for that read-out and setting: for `O=C(C=Cc1ccccc1F)N[C@@H](CO)C(=O)O` [Compound 66, N-[3-(2-Fluorophenyl)acryloyl]-L-serine] the value was 56 ± 6.9%.
